Data published in patent US9326978B2, “A3 adenosine receptor allosteric modulators” (The United States of America, Represented by the Secretary, …, priority 2006, dated 2016).

How the values were obtained:
human A3ARs [1] = target: T1, human A3ARs (Homo sapiens (Human), UniProt P0DMS8); assay: Cyclic AMP accumulation assay, efficacy at hA3AR; assay type: cell-based; details: compared to maximal effect by 2-Cl-IB-MECA alone (control = 100%)
Description: Intracellular cyclic AMP levels were measured with a competitive protein binding method (Nordstedt and Fredholm, 1990). CHO cells that expressed recombinant human A3ARs were harvested by trypsinization. After centrifugation and resuspension in medium, cells were plated in 24-well plates in 0.5 ml medium. After 24 hr, the medium was removed and cells were washed three times with 1 ml DMEM, containing 50 mM HEPES, pH 7.4. Cells were then treated with agonists and/or test compounds in the presence of rolipram (10 μM) and adenosine deaminase (3 units/ml). After 45 min forskolin (10 μM) was added to the medium, and incubation was continued an additional 15 min. The reaction was terminated by removing the supernatant, and cells were lysed upon the addition of 200 μL of 0.1 M ice-cold HCl. The cell lysate was resuspended and stored at −20° C. For determination of cyclic AMP production, protein kinase A (PKA) was incubated with [^3H]cyclic AMP (2 nM) in K2HPO4/EDTA buffer (K2HPO4, 150 mM; EDTA, 10 mM), 20 μL of the cell lysate, and 30 μL 0.1 M HCl or 50 μL of cyclic AMP solution (0-16 pmol/200 μL for standard curve). Bound radioactivity was separated by rapid filtration through Whatman GF/C filters and washed once with cold buffer. Bound radioactivity was measured by liquid scintillation spectrometry.

hA2BAR = hA2BAR (Homo sapiens (Human), UniProt P29275); assay: Effect on NECA-induced cyclic AMP accumulation at A2B receptor; also: NECA (150 nM)-induced cyclic AMP accumulation; assay type: cell-based; details: read-out: hA2BAR % inhib. at 10 μM
Sequence of hA2BAR (P29275 whole entry): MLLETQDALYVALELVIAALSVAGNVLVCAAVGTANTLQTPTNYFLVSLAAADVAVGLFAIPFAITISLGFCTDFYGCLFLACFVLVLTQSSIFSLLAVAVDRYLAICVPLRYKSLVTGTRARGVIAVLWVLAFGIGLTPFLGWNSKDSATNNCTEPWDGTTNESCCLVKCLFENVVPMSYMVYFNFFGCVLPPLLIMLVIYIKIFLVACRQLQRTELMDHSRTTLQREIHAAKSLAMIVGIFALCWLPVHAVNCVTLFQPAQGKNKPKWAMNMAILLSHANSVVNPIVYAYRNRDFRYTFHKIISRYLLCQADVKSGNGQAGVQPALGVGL

human A3AR = human A3AR (Homo sapiens (Human), UniProt P0DMS8); assay: Competitive binding assay to the human A3AR ([125I]I-AB-MECA); details: for inhibition at 10 µM: 1 h, [125I]I-AB-MECA (0.5 nM), CHO cells, Table 2, read-out: hA3AR % displ. at 10 μM
Sequence of human A3AR (P0DMS8 whole entry): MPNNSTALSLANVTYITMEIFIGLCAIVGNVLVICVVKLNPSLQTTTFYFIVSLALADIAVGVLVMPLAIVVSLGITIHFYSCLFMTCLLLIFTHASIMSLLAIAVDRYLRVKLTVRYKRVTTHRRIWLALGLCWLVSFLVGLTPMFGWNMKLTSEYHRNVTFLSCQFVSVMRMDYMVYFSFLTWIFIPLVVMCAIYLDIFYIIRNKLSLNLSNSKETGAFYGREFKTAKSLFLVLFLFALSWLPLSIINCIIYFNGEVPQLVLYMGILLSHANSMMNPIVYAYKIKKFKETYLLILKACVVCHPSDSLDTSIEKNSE
Description: (§1) CHO (Chinese hamster ovary) cells expressing the recombinant human ARs (HEK-293 cells were used for the human A2AAR) were cultured in DMEM and F12 (1:1) supplemented with 10% fetal bovine serum, 100 units/ml penicillin, […] streptomycin and 2 μmol/ml glutamine. Cells were harvested by trypsinization. After homogenization and suspension, cells were centrifuged at 500 g for 10 min, and the pellet was re-suspended in 50 mM Tris.HCl buffer (pH 7.4) containing 10 mM MgCl2. The suspension was homogenized with an electric homogenizer for 10 sec, and was then re-centrifuged at 20,000 g for 20 min at 4° C. The resultant pellets were resuspended in buffer in the presence of 3 Units/mL adenosine deaminase, and the suspension was stored at −80° C. until the binding experiments. The protein concentration was measured using the Bradford assay.
Each tube in the competitive binding assay contained 100 μl membrane suspension (20 μg protein), 50 μl [^125I]-AB-MECA (0.5 nM), and 50 μl of increasing concentrations of the test ligands in Tris.HCl buffer (50 mM, pH 8.0) containing 10 mM MgCl2, 1 mM EDTA. Nonspecific binding was determined using 10 μM of 5′-N-ethylcarboxamidoadenosine in the buffer. The mixtures were incubated at 25° C. for 60 min. Binding reactions were terminated by filtration through Whatman GF/B filters under reduced pressure using a MT-24 cell harvester (Brandell, Gaithersburgh, Md., USA). Filters were washed three times with 9 mL ice-cold buffer. Radioactivity was determined in a Beckman 5500B γ-counter.

human A2A AR = human A2A AR (Homo sapiens (Human), UniProt P29274); assay: Binding assay to the human A2A AR ([3H]CGS21680); details: 10 μM; [3H]CGS 21680 (15 nM), HEK293 cells; Table 2
Sequence of human A2A AR (P29274 whole entry): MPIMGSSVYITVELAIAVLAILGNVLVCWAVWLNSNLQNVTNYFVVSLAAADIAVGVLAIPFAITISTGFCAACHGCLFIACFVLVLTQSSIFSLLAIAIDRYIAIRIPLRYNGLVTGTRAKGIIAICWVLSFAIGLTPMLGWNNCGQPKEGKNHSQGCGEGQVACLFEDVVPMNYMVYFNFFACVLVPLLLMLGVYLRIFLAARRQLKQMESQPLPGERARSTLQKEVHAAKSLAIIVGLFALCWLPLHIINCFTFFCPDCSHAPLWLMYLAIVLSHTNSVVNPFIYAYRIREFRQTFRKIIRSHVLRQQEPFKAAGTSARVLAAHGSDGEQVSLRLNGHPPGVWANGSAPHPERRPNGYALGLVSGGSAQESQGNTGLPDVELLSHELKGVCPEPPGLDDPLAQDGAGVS
Description: as §1
(§2) For binding to the human A1AR, [^3H]R-PIA (2 nM) was incubated with membranes (40 μg/tube) from CHO cells stably expressing the human A1AR at 25° C. for 60 min in 50 mM Tris.HCl buffer (pH 7.4; MgCl2, 10 mM) in a total assay volume of 200 μL. Nonspecific binding was determined using 10 μM of N^6-cyclopentyladenosine. For human A2A AR binding, membranes (20 μg/tube) from HEK-293 cells stably expressing the human A2A AR were incubated with 15 nM [^3H]CGS21680 at 25° C. for 60 min in 200 μL of 50 mM Tris.HCl, pH 7.4, containing 10 mM MgCl2. N-5′-ethyluronamidoadenosine (10 μM) was used to define nonspecific binding. Reaction was terminated by filtration with GF/B filters.

human A3ARs [2] = target: T1, human A3ARs; assay: Dissociation kinetics of [125I]I-AB-MECA from human A3ARs; assay type: binding; details: 0.5 h, % decrease of dissociation at 30 min, residual binding of [125I]AB-MECA after 30 min = 100%, Table 2, read-out: hA3AR Ag. Dissociation at 10 μM
Description: The dissociation of [^125I]I-AB-MECA was measured as follows. Membranes (20 μg) were preincubated at 25° C. with 0.5 nM [^125I]I-AB-MECA, in a total volume of 100 μl of Tris-HCl buffer (50 mM, pH 8.0) containing 10 mM MgCl2, and 1 mM EDTA for 60 min. The dissociation was then initiated by the addition of 3 μM Cl-IB-MECA with or without allosteric modulators. The time course of dissociation of total binding was measured by rapid filtration at appropriate time intervals. Nonspecific binding was measured after 60-min incubation in the presence of 3 μM Cl-IB-MECA. Further assay was as described above.

human A1AR = human A1AR (Homo sapiens (Human), UniProt P30542); assay: Binding assay to the human A1AR ([3H]R-PIA); details: 1 h; 10 μM; [3H]R-PIA (2.0 nM), CHO cells; Table 2; read-out: hA1AR % displ. at 10 μM
Sequence of human A1AR (P30542 whole entry): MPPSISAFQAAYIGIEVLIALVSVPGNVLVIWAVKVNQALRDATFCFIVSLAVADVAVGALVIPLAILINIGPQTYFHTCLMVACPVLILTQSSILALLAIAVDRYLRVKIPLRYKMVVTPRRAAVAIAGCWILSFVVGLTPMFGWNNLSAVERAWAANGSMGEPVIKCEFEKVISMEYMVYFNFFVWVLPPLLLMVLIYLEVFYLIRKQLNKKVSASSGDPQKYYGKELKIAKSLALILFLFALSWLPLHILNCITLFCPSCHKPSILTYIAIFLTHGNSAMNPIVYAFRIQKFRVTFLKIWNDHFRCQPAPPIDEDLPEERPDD
Description: as §1, §2

T1 sequence (P0DMS8 whole entry): as the sequence (P0DMS8 whole entry) above

| Compound | % Increase of efficacy at hA3AR at 10 μM (human A3ARs [1]) [%] | inhibition at 10 µM (hA2BAR) [%] | inhibition at 10 µM (human A3AR) [%] | affinity to orthosteric versus allosteric binding sites (selective affinity) (human A3AR; orthosteric sites of A1, A2A, A2B, A3 receptors vs allosteric site of A3 adenosine receptor) | melting point [°C] | hA2AAR % displ. at 10 μM (human A2A AR) [%] | activity at 10 µM (human A3ARs [2]) [%] | inhibition at 10 µM (human A1AR) [%] |
| --- | --- | --- | --- | --- | --- | --- | --- | --- |
| Clc1ccc(Nc2nc3ccccc3c3[nH]c(C4CCCCCC4)nc23)cc1Cl [Compound 42, N-(3,4-Dichloro-phenyl)-2-cycloheptyl-1H-imidazo[4,5-c]quinolin-4-amine] | 115 ± 7 | -7.3 | 68 | selective affinity | 236 to 238 | −2 | 130 ± 2 | -4 |
| Clc1ccc(Nc2nc3ccccc3c3[nH]c(-c4ccco4)nc23)cc1Cl [Compound 43] | 95 ± 4 | 9 | 78 | – | 135 to 138 | 70 | 98 ± 3 | -4 |
| Clc1ccc(Nc2nc3ccccc3c3[nH]cnc23)cc1Cl [Compound 46, N-(3,4-Dichloro-phenyl)-2-1H-imidazo[4,5-c]quinolin-4-amine] | 92 ± 4 | 10.2 | 39 | – | 167 to 172 | −0.8 | 91 ± 7 | 1.8 |
| CCCCCc1nc2c(Nc3ccc(Cl)c(Cl)c3)nc3ccccc3c2[nH]1 [Compound 47, N-(3,4-Dichloro-phenyl)-2-pentyl-1H-imidazo[4,5-c]quinolin-4-amine] | 102 ± 5 | -9.3 | 84 | – | 195 to 200 | −1 | 116 ± 5 | 43.9 |
